The target of series [1] is T1, c-Myc/Max (Homo sapiens) (UniProt P01106+P61244). The series is described as follows: Inhibition of dimerization of human MYC bHLH-LZ domain/MAX bHLH-LZ domain expressed in Escherichia coli in presence of Alexa Fluor 594-tagged E-box duplex DNA by fluorescence polarization assay. For orientation: Fluorescence polarisation rises when a labelled molecule tumbles more slowly, as on binding a larger partner.

Series [2] concerns the target Myc proto-oncogene protein (Homo sapiens) (UniProt P01106). The series is described as follows: Inhibition of human ATG-Myc expressed in chicken embryo fibroblasts assessed as reduction in Myc-induced oncogenic transformation by measuring efficiency of oncogenic transformation at 10 uM.
For series [3] the target is unchanged. The experiment in a line: Inhibition of human ATG-Myc expressed in chicken embryo fibroblasts assessed as reduction in Myc-induced oncogenic transformation by measuring efficiency of oncogenic transformation.
Series [4] concerns the target T1, c-Myc/Max (Homo sapiens). The series is described as follows: Inhibition of MYC/MAX dimerization in human MDA-MB-231 cells assessed as increase in NDRG1 expression at 20 uM incubated for 24 hrs by Western blot analysis. Format: cell-based. (In general: A western blot detects proteins with antibodies after separation by electrophoresis.)
Series [5] deals with T1, c-Myc/Max (Homo sapiens). The series is described as follows: Inhibition of MYC/MAX dimerization in human MDA-MB-231 cells assessed as reduction in Myc expression at 20 uM incubated for 24 hrs by Western blot analysis. Format: cell-based.
The subject of series [6] is Raji. The series is described as follows: Antiproliferative activity against human Raji cells assessed as inhibition of cell proliferation at 2.5 to 10 uM incubated for 72 hrs by resazurin dye based assay. In kind it is functional. Background: Alamar Blue is a resazurin reagent that responds to reducing activity.
The subject of series [7] is Mus musculus. The experiment in a line: Inhibition of Myc in nude mouse xenografted with human MDA-MB-231 cells assessed as increase in NDRG1 expression at 10 mg/kg, ip dosed daily for 31 days by immunofluorescent staining. In kind it is functional, organism-based.
Series [8] relates to NCI-H460. The series is described as follows: Antiproliferative activity against human NCI-H460 cells assessed as inhibition of cell proliferation at 10 to 40 uM incubated for 3 days by Cell-titer 96 Non-radioactive cell proliferation assay. Format: functional, cell-based.
Series [9] has as its system Ramos. The experiment in a line: Antiproliferative activity against human Ramos cells assessed as inhibition of cell proliferation at 2.5 to 10 uM incubated for 72 hrs by resazurin dye based assay. Format: functional.
Series [10] concerns MDA-MB-231. The series is described as follows: Antiproliferative activity against human MDA-MB-231 cells assessed as inhibition of cell proliferation at 10 to 40 uM incubated for 3 days by Cell-titer 96 Non-radioactive cell proliferation assay. In kind it is functional, cell-based.
Series [11] relates to Avian sarcoma virus 17. The experiment in a line: Inhibition of Avian sarcoma virus 17 v-Jun expressed in chicken embryo fibroblasts assessed as reduction in Myc-induced oncogenic transformation by measuring efficiency of oncogenic transformation up to 20 uM.
Series [12] relates to Cotesia glomerata. The series is described as follows: Antiproliferative activity against v-myc-transformed primary QEF/MC29 cells assessed as inhibition of cell proliferation at 50 uM incubated for 3 days by Cell-titer 96 Non-radioactive cell proliferation assay. In kind it is functional.
Series [13] concerns SW480. The series is described as follows: Antiproliferative activity against human SW480 cells assessed as inhibition of cell proliferation at 50 uM incubated for 3 days by Cell-titer 96 Non-radioactive cell proliferation assay. In kind it is functional, cell-based.
In series [14] the test system is Mus musculus. The series is described as follows: Inhibition of Myc in nude mouse xenografted with human MDA-MB-231 cells assessed as increase in NDRG1 expression at 10 mg/kg, ip dosed daily for 31 days by Western blot analysis. In kind it is functional, organism-based.
Series [15] has as its system MDA-MB-231. The series is described as follows: Antitumor activity against human MDA-MB-231 cells xenografted in nude mouse assessed as reduction tumor weight at 10 mg/kg, ip dosed daily for 31 days. Format: functional, organism-based.
The test system of series [16] is Rous sarcoma virus. The experiment in a line: Inhibition of Rous sarcoma virus v-SRC expressed in chicken embryo fibroblasts assessed as reduction in Myc-induced oncogenic transformation by measuring efficiency of oncogenic transformation up to 20 uM.
Series [17] concerns SUM-159-PT. The series is described as follows: Antiproliferative activity against human SUM159PT cells assessed as inhibition of cell proliferation at 10 to 40 uM incubated for 3 days by Cell-titer 96 Non-radioactive cell proliferation assay. In kind it is functional, cell-based.
The subject of series [18] is MDA-MB-231. The series is described as follows: Effect on Myc expression in human MDA-MB-231 cells at 20 uM incubated for 24 hrs by Western blot analysis. Format: functional, cell-based.
Series [19] has as its target Myc proto-oncogene protein (Homo sapiens) (UniProt P01106). Conditions: MDA-MB-231, 20 uM.
Description: Inhibition of Myc in human MDA-MB-231 cells assessed as increase in NDRG1 expression at 20 uM incubated for 24 hrs by Western blot analysis
Series [20] has as its system Cotesia glomerata. The series is described as follows: Antiproliferative activity against methylcholanthrene-transformed primary quail embryo fibroblasts assessed as inhibition of cell proliferation at 50 uM incubated for 3 days by Cell-titer 96 Non-radioactive cell proliferation assay. In kind it is functional.
Series [21] relates to HL-60. The experiment in a line: Antiproliferative activity against human HL60 cells assessed as inhibition of cell proliferation at 25 uM incubated for 3 days by Cell-titer 96 Non-radioactive cell proliferation assay. Format: functional, cell-based.
The subject of series [22] is MDA-MB-231. The experiment in a line: Antitumor activity against human MDA-MB-231 cells xenografted in nude mouse assessed as reduction tumor volume at 10 mg/kg, ip dosed daily for 31 days. Format: functional, organism-based.
For series [23], the species on record is Homo sapiens. The experiment in a line: Antiproliferative activity against human Akata cells assessed as inhibition of cell proliferation at 2.5 to 10 uM incubated for 72 hrs by resazurin dye based assay. Format: functional.
For series [24], the species on record is Homo sapiens. The series is described as follows: Inhibition of PI3K H1047R mutant (unknown origin) expressed in chicken embryo fibroblasts assessed as reduction in Myc-induced oncogenic transformation by measuring efficiency of oncogenic transformation up to 20 uM.
A short description of series [25]: Acute toxicity in rat at 10 mg/kg. In kind it is organism-based. Conditions: in vivo.
Series [26] is described as follows: Acute toxicity in mouse at 10 mg/kg. In kind it is organism-based. Conditions: in vivo.
Series [27] concerns K562. The experiment in a line: Antiproliferative activity against human K562 cells assessed as inhibition of cell proliferation at 25 uM incubated for 3 days by Cell-titer 96 Non-radioactive cell proliferation assay. In kind it is functional, cell-based.
Series [28] is described as follows: Toxicity in nude mouse xenografted with human MDA-MB-231 cells assessed as effect on body weight at 10 mg/kg, ip dosed daily for 31 days. The note with it: in vivo, 744 h. Format: organism-based.
Series [29] can be described thus: Antiproliferative activity against HSF assessed as inhibition of cell proliferation at 50 uM incubated for 3 days by Cell-titer 96 Non-radioactive cell proliferation assay. Conditions: human, 72 h.
In series [30] the test system is MOLT-4. The experiment in a line: Antiproliferative activity against human MOLT4 cells assessed as inhibition of cell proliferation at 25 uM incubated for 3 days by Cell-titer 96 Non-radioactive cell proliferation assay. In kind it is functional, cell-based.

The structures appear in SMILES notation. The source made the active and inactive calls. No cut-off for these calls is given here.

Sequence of Myc proto-oncogene protein (Homo sapiens) (P01106 whole entry): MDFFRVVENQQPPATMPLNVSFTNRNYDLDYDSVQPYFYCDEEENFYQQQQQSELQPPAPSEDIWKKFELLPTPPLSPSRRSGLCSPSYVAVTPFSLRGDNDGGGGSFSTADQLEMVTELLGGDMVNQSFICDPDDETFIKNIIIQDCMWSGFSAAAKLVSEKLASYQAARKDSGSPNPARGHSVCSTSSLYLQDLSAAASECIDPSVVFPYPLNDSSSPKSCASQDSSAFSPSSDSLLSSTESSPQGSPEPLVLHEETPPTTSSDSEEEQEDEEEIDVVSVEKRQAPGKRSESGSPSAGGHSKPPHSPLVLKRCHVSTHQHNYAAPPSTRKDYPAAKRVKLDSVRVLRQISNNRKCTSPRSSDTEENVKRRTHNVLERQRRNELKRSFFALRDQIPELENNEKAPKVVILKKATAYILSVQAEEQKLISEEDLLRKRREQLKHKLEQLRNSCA

The term inhibition denotes the share of the control response that was lost under treatment. Turning to `NC(=O)c1ccc(-c2cc(-c3ccncc3)nc(-c3ccc([N+](=O)[O-])cc3)c2)cc1`, in series [1], the inhibition result is “Active”. The inhibition in [2] turned out to be 100%.

Regarding `CN1CCN(c2ccc(-c3cc(-c4ccc(C(N)=O)cc4)cc(-c4ccc([N+](=O)[O-])cc4)n3)cc2)CC1`, the inhibition result in [3] is “Active”. The inhibition result in series [1] was “inactive”.

Take `NC(=O)c1ccc(-c2cc(-c3ccc([N+](=O)[O-])cc3)nc(-c3cccc(Br)n3)c2)cc1`: the inhibition entry in [1] and in [2] was “inactive” in each case.

Take `NC(=O)c1ccc(-c2cc(-c3ccc([N+](=O)[O-])cc3)nc(-c3ccccn3)c2)cc1`: the inhibition entry in series [1] and in series [2] was “inactive” throughout.

As for `NC(=O)c1ccc(-c2cc(-c3ccc(SC(F)(F)F)cc3)nc(-c3ccco3)c2)cc1`, the inhibition result in series [1] and in series [2] was “inactive” throughout.

Take `CCc1ccc(/C=C2/SC(=S)NC2=O)cc1`: the inhibition entry in series [4] and in series [5] was “Active” throughout.

Turning to `NC(=O)c1ccc(-c2cc(-c3ccc(S(N)(=O)=O)cc3)nc(-c3ccco3)c2)cc1`, the inhibition result in series [1] is “Active”.

In the case of `NC(=O)c1ccc(-c2cc(-c3ccc([N+](=O)[O-])cc3)nc(-c3ccco3)c2)o1`, the inhibition entry in series [1] and in [2] was “Active” throughout.

In the case of `COC(=O)c1ccc(-c2cc(-c3ccc(C(N)=O)cc3)cc(-c3ccco3)n2)cc1`, the inhibition entry in series [1] and in series [2] was “inactive” in each case.

In the case of `NC(=O)c1ccc(-c2cc(-c3ccc([N+](=O)[O-])cc3)nc(-c3ccco3)c2)cc1`, the outcome in series [6], in series [8], in [9], in [10], in series [12] and in [15] was Active. Moreover, the outcome in series [17], in series [20], in [21], in series [22], in series [23] and in [27] was Active. In series [30], the result was Active. Besides, the inhibition entry in series [7], in [11], in series [14], in series [19], in [1] and in series [24] was “Active” each time. Moreover, the inhibition result in series [3] is “Dose-dependent effect”; in series [2], 100%. Also, the result in series [13] and in [18] was inactive. Besides, the inhibition result in [16] was “inactive”. Also, the Activity result in [25], in series [26], in series [28] and in [29] was “Non-Toxic” throughout.

Turning to `NC(=O)c1ccc(-c2cc(-c3ccc([N+](=O)[O-])cc3)nc(-c3ccccc3Br)c2)cc1`, the inhibition entry in [1] and in series [2] was “inactive” throughout.

Consider `NC(=O)c1ccc(-c2cc(-c3ccc(C(F)(F)F)cc3)nc(-c3ccco3)c2)cc1`, for which the inhibition result in [1] and in series [2] was “Active” each time.

On to `NC(=O)c1ccc(-c2cc(-c3ccc(OC(F)(F)F)cc3)nc(-c3ccco3)c2)cc1`, for which the inhibition entry in series [1] and in series [2] was “Active” each time.

As for `CS(=O)(=O)c1ccc(-c2cc(-c3ccc(C(N)=O)cc3)cc(-c3ccco3)n2)cc1`, the inhibition entry in series [1] and in [2] was “inactive” in each case.

In the case of `N#Cc1ccc(-c2cc(-c3ccc(C(N)=O)cc3)cc(-c3ccco3)n2)cc1`, the inhibition result in [3] and in [1] was “Active” each time. The inhibition in series [2] was found to be 100%.

As for `NC(=O)c1ccc(-c2cc(-c3ccc([N+](=O)[O-])cc3)nc(-c3ccc(Br)cn3)c2)cc1`, the inhibition entry in series [1] and in series [2] was “inactive” each time.

With `COC(=O)c1cccc(-c2cc(-c3ccc(C(N)=O)cc3)cc(-c3ccco3)n2)c1`, the inhibition entry in [3] and in [1] was “Active” each time. For the same compound, the inhibition in series [2] amounted to 100%.

Consider `NC(=O)c1ccc(-c2cc(-c3ccc(Br)cc3)nc(-c3ccc([N+](=O)[O-])cc3)c2)cc1`, for which the inhibition result in [1] and in series [2] was “inactive” in each case.

Values taken from ChEMBL document CHEMBL4417624, “Small molecule c-myc inhibitors” (2016).
